Measurements published in ChEMBL document CHEMBL3588788, “Structure-activity relationship of hybrids of Cinchona alkaloids and bile acids with in vitro antiplasmodial and antitrypanosomal activities” (Eur J Med Chem, 2015).

Columns and labels:
[1] = test system: Plasmodium falciparum; assay: Potency index, ratio of IC50 for QND to IC50 for test compound against Plasmodium falciparum 3D7 by parasite lactate dehydrogenase assay; assay type: functional
[2] = Cytotoxicity against human WI38 cells by MTT assay; assay type: cell-based, WI-38; conditions: Homo sapiens, WI-38; read-out: IC50
[3] = in vitro; conditions: human, WI38 cells
Description: Selectivity index, ratio of IC50 against human WI38 cells to IC50 for Trypanosoma brucei brucei Lister 427 bloodstream forms

[4] = test system: Plasmodium falciparum; assay: Antiplasmodial activity against Plasmodium falciparum 3D7 assessed as reduction in parasite viability by parasite lactate dehydrogenase assay; assay type: functional, organism-based
[5] = test system: Trypanosoma brucei brucei; assay: Antitrypanosomal activity against Trypanosoma brucei brucei Lister 427 bloodstream forms by microtiter plate based assay; assay type: functional, organism-based
[6] = Selectivity index, ratio of IC50 against human WI38 cells to IC50 for Plasmodium falciparum 3D7; assay type: toxicity, cell-based, WI-38; conditions: read-out: Ratio IC50
[7] = test system: Trypanosoma brucei brucei; assay: Potency index, ratio of IC50 for QND to IC50 for test compound against Trypanosoma brucei brucei Lister 427 bloodstream forms by microtiter plate based assay; assay type: functional
[8] = test system: Plasmodium falciparum; assay: Potency index, ratio of IC50 for CN to IC50 for test compound against Plasmodium falciparum 3D7 by parasite lactate dehydrogenase assay; assay type: functional
[9] = test system: Trypanosoma brucei brucei; assay: Potency index, ratio of IC50 for CN to IC50 for test compound against Trypanosoma brucei brucei Lister 427 bloodstream forms by microtiter plate based assay; assay type: functional
[10] = test system: Plasmodium falciparum; assay: Potency index, ratio of IC50 for CND to IC50 for test compound against Plasmodium falciparum 3D7 by parasite lactate dehydrogenase assay; assay type: functional
[11] = test system: Trypanosoma brucei brucei; assay: Potency index, ratio of IC50 for CND to IC50 for test compound against Trypanosoma brucei brucei Lister 427 bloodstream forms by microtiter plate based assay; assay type: functional

| Structure (SMILES) | IC50 [5] [nM] | Ratio IC50 [1] | IC50 [2] [nM] | selectivity ratio [3] | IC50 [4] [nM] | selectivity ratio [6] | Ratio IC50 [7] | Ratio IC50 [8] | Ratio IC50 [9] | Ratio IC50 [10] | Ratio IC50 [11] |
| --- | --- | --- | --- | --- | --- | --- | --- | --- | --- | --- | --- |
| C=C[C@H]1CN2CC[C@H]1C[C@@H]2[C@@H](O)c1cc(CC[C@@H](C)[C@H]2CC[C@H]3[C@@H]4CC[C@@H]5C[C@H](OC(C)=O)CC[C@]5(C)[C@H]4C[C@H](OC(C)=O)[C@]23C)nc2ccccc12 | 1510 |  | 4800 | 3.2 | 171 | 28.1 |  | 1.7 | 45.1 |  |  |
| C=C[C@H]1CN2CC[C@H]1C[C@@H]2[C@@H](O)c1cc(CC[C@@H](C)[C@H]2CC[C@H]3[C@@H]4[C@H](OC(C)=O)C[C@@H]5C[C@H](OC(C)=O)CC[C@]5(C)[C@H]4C[C@H](OC(C)=O)[C@]23C)nc2ccccc12 | 550 |  | 5100 | 9.3 | 52.8 | 97 |  | 5.5 | 123.6 |  |  |
| C=C[C@H]1CN2CC[C@H]1C[C@@H]2[C@@H](O)c1cc(CC[C@@H](C)[C@H]2CC[C@H]3[C@@H]4C[C@H](O)[C@@H]5C[C@H](O)CC[C@]5(C)[C@H]4CC[C@]23C)nc2ccccc12 | 720 |  | 5490 | 7.6 | 71.6 | 77 |  | 4.1 | 94.5 |  |  |
| C=C[C@H]1CN2CC[C@H]1C[C@@H]2[C@@H](O)c1cc(CC[C@@H](C)[C@H]2CC[C@H]3[C@@H]4[C@H](O)[C@H](O)[C@@H]5C[C@H](O)CC[C@]5(C)[C@H]4CC[C@]23C)nc2ccccc12 | 1810 |  | 5680 | 3.1 | 183 | 31 |  | 1.6 | 37.6 |  |  |
| C=C[C@H]1CN2CC[C@H]1C[C@@H]2[C@@H](O)c1cc(CC[C@@H](C)[C@H]2CC[C@H]3[C@@H]4CC[C@@H]5C[C@H](O)CC[C@]5(C)[C@H]4C[C@H](O)[C@]23C)nc2ccccc12 | 600 |  | 2980 | 5 | 134 | 22 |  | 2.2 | 113.1 |  |  |
| C=C[C@H]1CN2CC[C@H]1C[C@H]2[C@H](O)c1cc(CC[C@@H](C)[C@H]2CC[C@H]3[C@@H]4C[C@H](OC(C)=O)[C@@H]5C[C@H](OC(C)=O)CC[C@]5(C)[C@H]4CC[C@]23C)nc2ccccc12 | 1180 |  | 4160 | 3.5 | 115 | 36 |  |  |  | 8.3 | 52.5 |
| C=C[C@H]1CN2CC[C@H]1C[C@H]2[C@H](O)c1cc(CC[C@@H](C)[C@H]2CC[C@H]3[C@@H]4[C@H](OC(C)=O)C[C@@H]5C[C@H](OC(C)=O)CC[C@]5(C)[C@H]4C[C@H](OC(C)=O)[C@]23C)nc2ccccc12 | 1470 |  | 6700 | 4.6 | 40.6 | 165 |  |  |  | 23.7 | 42.4 |
| C=C[C@H]1CN2CC[C@H]1C[C@H]2[C@H](O)c1cc(CC[C@@H](C)[C@H]2CC[C@H]3[C@@H]4[C@H](O)[C@H](O)[C@@H]5C[C@H](O)CC[C@]5(C)[C@H]4CC[C@]23C)nc2ccccc12 | 620 |  | 5320 | 8.6 | 392 | 14 |  |  |  | 2.5 | 100.5 |
| C=C[C@H]1CN2CC[C@H]1C[C@H]2[C@H](O)c1cc(CC[C@@H](C)[C@H]2CC[C@H]3[C@@H]4[C@H](O)C[C@@H]5C[C@H](O)CC[C@]5(C)[C@H]4C[C@H](O)[C@]23C)nc2ccccc12 | 1750 |  | 8090 | 4.6 | 1800 | 4 |  |  |  | 0.5 | 35.6 |

Continued, in another order:

| IC50 [5] [nM] | Structure (SMILES) | Ratio IC50 [1] | IC50 [2] [nM] | selectivity ratio [3] | IC50 [4] [nM] | selectivity ratio [6] | Ratio IC50 [7] | Ratio IC50 [8] | Ratio IC50 [9] | Ratio IC50 [10] | Ratio IC50 [11] |
| --- | --- | --- | --- | --- | --- | --- | --- | --- | --- | --- | --- |
| 1470 | C=C[C@H]1CN2CC[C@H]1C[C@@H]2[C@@H](O)c1cc(CC[C@@H](C)[C@H]2CC[C@H]3[C@@H]4C[C@H](OC(C)=O)[C@@H]5C[C@H](OC(C)=O)CC[C@]5(C)[C@H]4CC[C@]23C)nc2ccc(OC)cc12 | 1.3 | 4490 | 3.1 | 155 | 29 | 17.7 |  |  |  |  |
| 640 | C=C[C@H]1CN2CC[C@H]1C[C@@H]2[C@@H](O)c1cc(CC[C@@H](C)[C@H]2CC[C@H]3[C@@H]4C[C@H](OC(C)=O)[C@@H]5C[C@H](OC(C)=O)CC[C@]5(C)[C@H]4CC[C@]23C)nc2ccccc12 |  | 4280 | 6.6 | 186 | 23 |  | 1.6 | 105.7 |  |  |
| 510 | C=C[C@H]1CN2CC[C@H]1C[C@@H]2[C@@H](O)c1cc(CC[C@@H](C)[C@H]2CC[C@H]3[C@@H]4[C@H](OC(C)=O)[C@H](OC(C)=O)[C@@H]5C[C@H](OC(C)=O)CC[C@]5(C)[C@H]4CC[C@]23C)nc2ccccc12 |  | 4170 | 8.3 | 40.8 | 102 |  | 7.2 | 134.6 |  |  |
| 1100 | C=C[C@H]1CN2CC[C@H]1C[C@@H]2[C@@H](O)c1cc(CC[C@@H](C)[C@H]2CC[C@H]3[C@@H]4[C@H](O)C[C@@H]5C[C@H](O)CC[C@]5(C)[C@H]4C[C@H](O)[C@]23C)nc2ccccc12 |  | 5680 | 5.2 | 592 | 10 |  | 0.5 | 61.8 |  |  |
| 520 | C=C[C@H]1CN2CC[C@H]1C[C@H]2[C@H](O)c1cc(CC[C@@H](C)[C@H]2CC[C@H]3[C@@H]4[C@H](OC(C)=O)[C@H](OC(C)=O)[C@@H]5C[C@H](OC(C)=O)CC[C@]5(C)[C@H]4CC[C@]23C)nc2ccccc12 |  | 3750 | 7.2 | 36.1 | 104 |  |  |  | 26.6 | 119.8 |
| 570 | C=C[C@H]1CN2CC[C@H]1C[C@H]2[C@H](O)c1cc(CC[C@@H](C)[C@H]2CC[C@H]3[C@@H]4CC[C@@H]5C[C@H](OC(C)=O)CC[C@]5(C)[C@H]4C[C@H](OC(C)=O)[C@]23C)nc2ccccc12 |  | 4060 | 7.1 | 77.2 | 53 |  |  |  | 12.5 | 108.2 |
| 530 | C=C[C@H]1CN2CC[C@H]1C[C@H]2[C@H](O)c1cc(CC[C@@H](C)[C@H]2CC[C@H]3[C@@H]4C[C@H](O)[C@@H]5C[C@H](O)CC[C@]5(C)[C@H]4CC[C@]23C)nc2ccccc12 |  | 3280 | 6.2 | 92.1 | 36 |  |  |  | 10.5 | 116.7 |
| 660 | C=C[C@H]1CN2CC[C@H]1C[C@H]2[C@H](O)c1cc(CC[C@@H](C)[C@H]2CC[C@H]3[C@@H]4CC[C@@H]5C[C@H](O)CC[C@]5(C)[C@H]4C[C@H](O)[C@]23C)nc2ccccc12 |  | 5640 | 8.6 | 320 | 18 |  |  |  | 3 | 94.8 |
